From patent publication US20050244413A1, “Compositions and methods for treating cancer using cytotoxic CD44 antibody immunoconjugates and chemotherapeutic agents” (priority 2002, published 2005)
“And” between values parts separate entries of the source, which are not always exact repeats. Identical values can stand only once.

Experiments:
[1] = system: MDA-MB-453 tumors; conditions: BIWI 1 75 μg/kg DM1 i.v. q7dx4
Experimental: Experiments were performed using nude mice xenografted subcutaneously with the human breast carcinoma cell line MDA-MBA53. […] The efficacy of these combinations was compared to those of the respective monotherapies by i) analysing the tumor volumes over time and ii) by determining the time for tumors to reach a certain size (tumor growth delay).
The dilutions were prepared freshly for each application or stored at +4° C. during the whole treatment period. […] 200 μl of solutions with different concentrations were injected into the tail vein. Docetaxel (Taxotere®, Aventis, 10 mg/ml) was diluted in 0.9% NaCl. 200 μl of solutions with different concentrations were injected into the tail vein.
Briefly, 1×10^7 MDA-MB-453 cells (ATCC No. HTB-131) were injected into the mammary fat pad of female NMRI nu/nu mice. After reaching a volume of approximately 1000 mm^3 tumors were excised, cut into 4×4 mm pieces and passaged further subcutaneously. Tumor fragments were cryoconserved in 90% RPMI 1640/10% dimethylsulfoxide (slow freezing process down to −80° C., storage in liquid nitrogen). For further passaging, frozen tumor fragments were thawed, washed 3 times in PBS and implanted subcutaneously into the right and left flanks of a 4-5 female NMRI nu/nu mice. Tumors of these mice were then used to prepare the animals for a therapy experiment. Tumors were excised with a size of approximately 10 mm in diameter, cut into 2×2 mm pieces and implanted subcutaneously into the right flank of 6-8 week old female NMRI nu/nu mice. Approximately twice as many animals as needed for the experiment were prepared. When tumors reached a size of 5-10 mm in diameter (10-14 days after implantation), animals were randomised and treatments were started. Animals were obtained from Harlan (Germany) or M&B (Denmark). Tumor sizes and body weights were recorded as described in Section 2.7.

[2] = system: antigen-positive FaDu cells; assay: In vitro binding to FaDu cells (FACS); conditions: 1 hour on ice, FITC-labeled anti-human IgG, read-out: apparent KD
Experimental: The binding of BIWA 4 antibody and BIWI 1 conjugate to antigen-positive FaDu cells was determined. Cells ([…]) were incubated in 96-well plates with varying concentrations of antibody or conjugate on ice for 1 hour. The test article was washed from the plate and FITC-labeled anti-human IgG was added and the incubation on ice was continued in the dark for 1 hour. After washing, the cells were fixed with 1% paraformaldehyde and analyzed on a fluorescence activated cell sorter (FACS).

[3] = system: MDA-MB 453 tumors; assay: BIWI 1 monotherapy in MDA-MB 453 xenografted mice; assay type: in vivo, mouse
Experimental: In vivo anti-tumor efficacy of BIWI 1 was tested in three nude mouse xenograft models applying antigen-positive human tumors: A431 (ATCC # CRL 1555; epidermoid carcinoma of the vulva), FaDu (ATCC # HTB 43; squamous cell carcinoma of the pharynx), and MDA-MB 453 (ATCC # HTB-131; breast carcinoma). The cells were received from ATCC and cultured in RPMI1640 medium containing 10% fetal calf serum and supplements. 1×10^6 tumors cells were transplanted subcutaneously into the right flank of 6 week old female NMRI-nu/nu mice. Tumor growth was monitored by measuring tumor size. A tumor response was rated as complete response when the tumor completely disappeared at any time after start of treatment. The response was rated as partial response when the tumor volume decreased after treatment but thereafter started regrowing. The tolerability of the treatment was monitored by measuring mouse weight during the observation period.
Groups of 6 mice were treated with 6.25 mg/kg BIWI 1, 12.5 mg/kg BIWI 1, and 25 mg/kg BIWI 1, respectively. Treatment consisted of i.v. injections of BIWI 1 given weekly for four weeks. The average tumor size at start of treatment was 246±/−79 mm^3 (PBS), 216 +/85 mm^3 (6.25 mg/kg BIWI 1), 188±/−79 mm^3 (12.5 mg/kg BIWI 1), and 207±/−96 mm3 (25 mg/kg BIWI 1), respectively. The initial tumor volume doubling time of the control tumors was approximately 5 days. […] Tumors treated with 12.5 mg/kg or 6.25 mg/kg responded completely in 5/6 cases in each dose group, and 4 animals of each group stayed tumor free until the end of the experiment.

[4] = system: breast carcinoma xenografts; assay: BIWI 1 (five daily doses) combination with paclitaxel in human breast carcinoma xenograft model; assay type: in vivo, mouse
Experimental: BIWI was given i.v. into the tail vein at doses of 50 μg DM1/kg/day or 100 μg DM1/kg/day for five consecutive days. Paclitaxel (Taxol®) was given i.v. at 20 or 10 mg/kg, doxorubicin (Adriamycin®) at 6 or 4 mg/kg only on the first day of the treatment period, in each case 4 hours after BIWI 1 treatment. In mice bearing breast carcinoma xenografts with a volume of approximately 100 mm3.

[5] = system: FaDuDD tumors; assay: BIWI 1 combination with cisplatin in nude mice xenografted with FaDuDD tumors; assay type: in vivo, mouse
Experimental: The antibody solution was injected into the tail vein with an injection volume of 200 μl for a 25 g mouse. In the control groups without BIWI 1 treatment animals were injected i.v. with PBS. […] The solution was injected into the tail vein with an injection volume of 200 μl for a 25 g mouse. […] The solution was injected into the tail vein with an injection volume of 200 μl for a 25 g mouse.
Tumor sizes and body weights were recorded 2-3 times per week. Tumor sizes were measured with a calliper (length and width) and the volume was calculated according to the following formula: volume (length)×(width)^2×([…]). The tolerability of the treatment was monitored by measuring mouse weight during the whole observation period. […] For calculation of the mean tumor volumes per group, the last values of tumor size for individual animals were carried forward in case that these animals had to be sacrificed due to large tumor burden before the whole group was terminated. In addition to the absolute tumor volume in mm^3, the relative tumor volumes (RTV) were calculated as follows:
RTV=(tumor volume at day x)/(tumor volume at start of treatment)×100 For the evaluation of treatment efficacy the following parameters were calculated: • T/C (%)=(mean RTV of treated group)/(mean RTV of control group)×100 • T4T (tumor quadrupling time)=time until the mean RTV reaches 400% • GDF4 (growth delay factor)=T4T treated/T4T control.
In addition, for some experiments, the mean time for tumors to reach 8 times (T8T) their initial sizes were also calculated. The growth delay factor (GDF8) was then calculated accordingly. Percentages of mean relative tumor volumes of treated versus control groups (T/C) were calculated on the days indicated. For statistical evaluation of combination therapies exact Wilcoxon tests were used. Tolerability was assessed by monitoring body weight changes.
A different set of experiments was done with cisplatin. In a pilot experiment, a dose of 4 mg/kg cisplatin administered i.v. four times in weekly intervals was determined to be non-curative in this model, and also represents the maximum tolerated dose in the mouse strain used. This dose of cisplatin was combined with BIWI 1 at the non-curative doses of 200 μg/kg DM1 and 300 Ag/kg DM1 already used in the previous experiment. […] In the latter combination group 2/8 complete tumor regressions could be observed. […] Treatment was well tolerated in all groups.

[6] = 25 mg/kg BIWI 1 i.v. weekly for four weeks
[7] = BIWI 1 200 μg/kg DM1 i.v. q7dx4
[8] = BIWI 1 300 μg/kg DM1 i.v. q7dx4

BIWI 1
GDF4 [1]: 1.3
T4T [1]: 14 days and 14.1 days
T/C (d 16) [1]: 75%
Kd [2]: 1.8 nM
animals tumor free until the end of the experiment ([3]; 12.5 mg/kg or 6.25 mg/kg BIWI 1, each group of 6 mice): 4
complete responses ([3]; 12.5 mg/kg or 6.25 mg/kg BIWI 1 i.v. weekly for four weeks, in each dose group): 5/6
day on which tumors disappeared [3, 6]: ~22 days
tumor regrowth until end of observation period (day 64) [3, 6]: No tumor regrowth
tumor response [3, 6]: all tumors responded completely
complete tumor regressions ([4]; BIWI 1 monotherapy 50 μg DM1/kg/day i.v., five consecutive days): 2/12
T/C (median relative tumor volumes of treated versus control groups) ([4]; BIWI 1 monotherapy 50 μg DM1/kg/day x5): 19%
Complete Regression ([4]; BIWI 1 monotherapy 100 μg DM1/kg/day i.v., five consecutive days, tumors approx. 100 mm3): 12/12
GDF4 [5, 7]: 2.2
T4T [5, 7]: 23.2 days
T/C (d 19) [5, 7]: 59%
GDF4 [5, 8]: 2.3
T4T [5, 8]: 24.8 days
T/C (d 19) [5, 8]: 27%
